Tested on: Mice
Assay: Acute cerebral ischemia hypoxia survival time of mice, different formulations (Example 1)
Type: in vivo
Settings: 800 mg/kg per day oral, 7 days, sacrificed 1 h after last dosing
Procedure: The acute cerebral ischemia hypoxia survival time of the mice through different formulations is provided.
Dosage: 800 mg/kg per day per group. The test sample is prepared by redistilled water and drenched into the stomach through the mouth for seven days continuously.
Testing Method: The mice are respectively sacrificed one hour after the last stomach drenching, and the time from the sacrifice of the mice to the time when they stop gasping through mouths is recorded with a second counter.

NC(=O)NCCC[C@H](N)C(=O)O [Sample 1, Citrulline]
Gasp Stopping Time: 12.6 s
